Experimental data reported in patent US7462600B2, “Macrolides” (Pfizer Inc, priority 2004, dated 2008).
In brackets after ≈: the same amount, converted by molar mass.

What was measured:
Type in all cases: cell-based
[1] = system: Streptococcus pyogenes 1079; test: MIC, microtiter broth dilution (NCCLS M100-S14), S. pyogenes 1079 (ermB); settings: Streptococcus pyogenes 1079
How it was run: (§1)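 Compounds were first dissolved in DMSO (40 mg/ml stock), then tested by broth dilution in microtiter trays. MICs were interpreted using the 14th Informational Supplement (M100-S14) criteria.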

[2] = system: Streptococcus pneumoniae 1016; test: MIC, microtiter broth dilution (NCCLS M100-S14), S. pneumoniae 1016 (susceptible); settings: Streptococcus pneumoniae 1016
How it was run: as §1

[3] = system: Haemophilus influenzae 1218; test: MIC, microtiter broth dilution (NCCLS M100-S14), H. influenzae 1218 (susceptible); settings: Haemophilus influenzae 1218
How it was run: as §1

[4] = system: Streptococcus pneumoniae 1095; settings: Streptococcus pneumoniae 1095; microtiter broth dilution
How it was run: as §1

[5] = system: Streptococcus pneumoniae 1175; settings: Streptococcus pneumoniae 1175; microtiter broth dilution
How it was run: as §1

Structure (SMILES) | MIC S. pyogenes 1079 [1] [µg/mL] | MIC S. pneumo. 1016 [2] [µg/mL] | MIC H. influenzae 1218 [3] [µg/mL] | MIC S. pneumo. 1095 [4] [µg/mL] | MIC S. pneumo. 1175 [5] [µg/mL]
CCC1OC(=O)C(C)C(=O)C(C)C(OC2OC(C)CC(N(C)C)C2O)C(C)(OC)CC(C)C(=O)C(C)C2N(C3CN(S(=O)(=O)c4ccc5ncsc5c4)C3)C(=O)OC12C (stereo not drawn) [Example 3.79] | 1 (≈ 1.16 µM) | <0.06 | 0.25 (≈ 0.289 µM) | <0.06 | <0.06
CCC1OC(=O)C(C)C(=O)C(C)C(OC2OC(C)CC(N(C)C)C2O)C(C)(OC)CC(C)C(=O)C(C)C2N(C3CN(S(=O)(=O)c4cncc(-n5cccn5)c4)C3)C(=O)OC12C (stereo not drawn) [Example 3.80, 3-descladinosyl-11,12-dideoxy-6-O-methyl-3-oxo-12,11-(oxycarbonyl-(1-(5-(1H-pyrazol-1-yl)pyridine-3-sulfonyl)-azetidin-3-yl)-imino)erythromycin A] | 4 (≈ 4.57 µM) | <0.06 | >64.00 | <0.06 | <0.06
CCC1OC(=O)C(C)C(=O)C(C)C(OC2OC(C)CC(N(C)C)C2O)C(C)(OC)CC(C)C(=O)C(C)C2N(C3CN(S(=O)(=O)c4ccc(-n5ccnc5)c(F)c4)C3)C(=O)OC12C (stereo not drawn) [Example 3.81, 3-descladinosyl-11,12-dideoxy-4-O-methyl-3-oxo-12,11-(oxycarbonyl-(1-(3-fluoro-4-(1H-imidazol-1-yl)benzenesulfonyl)-azetidin-3-yl)-imino)-erythromycin A] | 4 (≈ 4.48 µM) | <0.06 | 1 (≈ 1.12 µM) | <0.06 | <0.06
CCC1OC(=O)C(C)C(=O)C(C)C(OC2OC(C)CC(N(C)C)C2O)C(C)(OC)CC(C)C(=O)C(C)C2N(C3CN(S(=O)(=O)c4ccc(-n5ccnc5)cc4)C3)C(=O)OC12C (stereo not drawn) [Example 3.82, 3-descladinosyl-11,12-dideoxy-6-O-methyl-3-oxo-12,11-(oxycarbonyl-(1-(4-(1H-imidazol-1-yl)benzenesulfonyl)-azetidin-3-yl)-imino)erythromycin A] | 2 (≈ 2.29 µM) | <0.06 | 0.25 (≈ 0.286 µM) | <0.06 | <0.06
CCC1OC(=O)C(C)C(=O)C(C)C(OC2OC(C)CC(N(C)C)C2O)C(C)(OC)CC(C)C(=O)C(C)C2N(C3CN(S(=O)(=O)c4ccc5c(c4)CCC5)C3)C(=O)OC12C (stereo not drawn) [Example 3.83] | 32 (≈ 37.7 µM) | <0.06 | 1 (≈ 1.18 µM) | <0.06 | <0.06
CCC1OC(=O)C(C)C(=O)C(C)C(OC2OC(C)CC(N(C)C)C2O)C(C)(OC)CC(C)C(=O)C(C)C2N(C3CN(S(=O)(=O)c4ccc(-c5nnn[nH]5)cc4)C3)C(=O)OC12C (stereo not drawn) [Example 3.84, 4-(1H-tetrazol-5-yl)benzenesulfonyl] | >64.00 | 1 (≈ 1.14 µM) | 32 (≈ 36.5 µM) | >64.00 | 16 (≈ 18.3 µM)
CCC1OC(=O)C(C)C(=O)C(C)C(OC2OC(C)CC(N(C)C)C2O)C(C)(OC)CC(C)C(=O)C(C)C2N(C3CN(S(=O)(=O)c4ccc5cn[nH]c5c4)C3)C(=O)OC12C (stereo not drawn) [Example 3.85, 3-descladinosyl-11,12-dideoxy-6-O-methyl-3-oxo-12,11-(oxycarbonyl-(1-(1H-indazole-6-sulfonyl)-azetidin-3-yl)-imino)-erythromycin A] | 1 (≈ 1.18 µM) | <0.06 | 0.25 (≈ 0.295 µM) | <0.06 | <0.06
CCC1OC(=O)C(C)C(=O)C(C)C(OC2OC(C)CC(N(C)C)C2O)C(C)(OC)CC(C)C(=O)C(C)C2N(C3CN(S(=O)(=O)c4ccc(-n5cccn5)c(F)c4)C3)C(=O)OC12C (stereo not drawn) [Example 3.86, 3-descladinosyl-11,12-dideoxy-6-O-methyl-3-oxo-12,11-(oxycarbonyl-(1-(3-fluoro-4-(1H-pyrazol-1-yl)benzenesulfonyl)-azetidin-3-yl)-imino)-erythromycin A] | 1 (≈ 1.12 µM) | <0.06 | 1 (≈ 1.12 µM) | <0.06 | <0.06
CCC1OC(=O)C(C)C(=O)C(C)C(OC2OC(C)CC(N(C)C)C2O)C(C)(OC)CC(C)C(=O)C(C)C2N(C3CN(S(=O)(=O)c4ccc5[nH]ncc5c4)C3)C(=O)OC12C (stereo not drawn) [Example 3.87, 3-descladinosyl-11,12-dideoxy-6-O-methyl-3-oxo-12,11-(oxycarbonyl-(1-(1H-indazole-5-sulfonyl)-azetidin-3-yl)-imino)-erythromycin A] | 0.19 (≈ 0.224 µM) | <0.06 | 0.19 (≈ 0.224 µM) | <0.06 | <0.06
CCC1OC(=O)C(C)C(=O)C(C)C(OC2OC(C)CC(N(C)C)C2O)C(C)(OC)CC(C)C(=O)C(C)C2N(C3CN(S(=O)(=O)c4ccc(F)c(-c5cnco5)c4)C3)C(=O)OC12C (stereo not drawn) [Example 3.88, 3-descladinosyl-11,12-dideoxy-6-O-methyl-3-oxo-12,11-(oxycarbonyl-(1-(4-fluoro-3-(oxazol-5-yl)benzenesulfonyl)-azetidin-3-yl)-imino)-erythromycin A] | 8 (≈ 8.96 µM) | <0.06 | 2 (≈ 2.24 µM) | <0.06 | <0.06
CCC1OC(=O)C(C)C(=O)C(C)C(OC2OC(C)CC(N(C)C)C2O)C(C)(OC)CC(C)C(=O)C(C)C2N(C3CN(S(=O)(=O)c4ccc5sc(C)nc5c4)C3)C(=O)OC12C (stereo not drawn) [Example 3.90, 3-descladinosyl-11,12-dideoxy-6-O-methyl-3-oxo-12,11-(oxycarbonyl-(1-(2-methylbenzo[d]thiazole-5-sulfonyl)-azetidin-3-yl)-imino)-erythromycin A] | 8 (≈ 9.1 µM) | <0.06 | 0.25 (≈ 0.284 µM) | <0.06 | <0.06
CCC1OC(=O)C(C)C(=O)C(C)C(OC2OC(C)CC(N(C)C)C2O)C(C)(OC)CC(C)C(=O)C(C)C2N(C3CN(S(=O)(=O)c4ccc5ccccc5c4)C3)C(=O)OC12C (stereo not drawn) [Example 3.91, 3-descladinosyl-11,12-dideoxy-4-O-methyl-3-oxo-12,11-(oxycarbonyl-(1-(naphthalene-2-sulfonyl)-azetidin-3-yl)-imino)-erythromycin A] | 4 (≈ 4.66 µM) | <0.06 | 0.12 (≈ 0.14 µM) | <0.06 | <0.06
CCC1OC(=O)C(C)C(=O)C(C)C(OC2OC(C)CC(N(C)C)C2O)C(C)(OC)CC(C)C(=O)C(C)C2N(C3CN(S(=O)(=O)c4cccc5cnncc45)C3)C(=O)OC12C (stereo not drawn) [Example 3.92, 3-descladinosyl-11,12-dideoxy-6-O-methyl-3-oxo-12,11-(oxycarbonyl-(1-(phthalazine-5-sulfonyl)-azetidin-3-yl)-imino)-erythromycin A] | 4 (≈ 4.65 µM) | <0.06 | 1 (≈ 1.16 µM) | <0.06 | <0.06
CCC1OC(=O)C(C)C(=O)C(C)C(OC2OC(C)CC(N(C)C)C2O)C(C)(OC)CC(C)C(=O)C(C)C2N(C3CN(S(=O)(=O)c4cccc5nccnc45)C3)C(=O)OC12C (stereo not drawn) [Example 3.93, 3-descladinosyl-11,12-dideoxy-4-O-methyl-3-oxo-12,11-(oxycarbonyl-(1-(quinoxaline-5-sulfonyl)-azetidin-3-yl)-imino)-erythromycin A] | 1 (≈ 1.16 µM) | <0.06 | 0.25 (≈ 0.291 µM) | <0.06 | <0.06
CCC1OC(=O)C(C)C(=O)C(C)C(OC2OC(C)CC(N(C)C)C2O)C(C)(OC)CC(C)C(=O)C(C)C2N(C3CN(S(=O)(=O)c4ccc5c(cnn5C)c4)C3)C(=O)OC12C (stereo not drawn) [Example 3.94, 3-descladinosyl-11,12-dideoxy-6-O-methyl-3-oxo-12,11-(oxycarbonyl-(1-(1-methyl-1H-indazole-5-sulfonyl)-azetidin-3-yl)-imino)erythromycin A] | 0.25 (≈ 0.29 µM) | <0.06 | 0.25 (≈ 0.29 µM) | 0.12 (≈ 0.139 µM) | <0.06
